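Test compounds were applied to cells in 96-well plates for 48 hours at 5 doses. GI50 is the concentration that inhibits growth by half.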 Active and inactive are the calls of the source. No stated cut-off is given here; in the data, active = GI50 up to about 1.1 µM and inactive = higher.
Experiments:
Assay in all cases: inhibition of tumour cell growth, NCI panel, 48 h
[1] = system: 786-0
[2] = system: A498
[3] = system: A549
[4] = system: ACHN
[5] = system: CAKI-1
[6] = system: CCRF-CEM
[7] = system: COLO 205
[8] = system: DLD-1
[9] = system: DMS-114
[10] = system: DMS-273
[11] = system: EKVX
[12] = system: HCC 2998
[13] = system: HCT-116
[14] = system: HCT-15
[15] = system: HL-60
[16] = system: HOP-18
[17] = system: HOP-62
[18] = system: HOP-92
[19] = system: HT-29
[20] = system: IGROV-1
[21] = system: K562
[22] = system: KM-20L2
[23] = system: KM12
[24] = system: LXFL 529
[25] = system: M14
[26] = system: M19-MEL
[27] = system: MOLT-4
[28] = system: Malme-3M
[29] = system: NCI-H23
[30] = system: NCI-H460
[31] = system: NCI-H522
[32] = system: OVCAR-3
[33] = system: OVCAR-4
[34] = system: OVCAR-5
[35] = system: OVCAR-8
[36] = system: RPMI-8226
[37] = system: SF-268
[38] = system: SF-295
[39] = system: SF-539
[40] = system: SK-MEL-28
[41] = system: SK-MEL-2
[42] = system: SK-MEL-5
[43] = system: SK-OV-3
[44] = system: SN12C
[45] = system: SNB-19
[46] = system: SNB-75
[47] = system: SNB-78
[48] = system: SR
[49] = system: SW-620
[50] = system: TK-10
[51] = system: U-251
[52] = system: UACC-257
[53] = system: UACC-62
[54] = system: UO-31
[55] = system: LOX IMVI
[56] = system: NCI-H226
[57] = system: RXF 393
[58] = system: XF498

## O=[N+]([O-])c1cccc(C2ON2C2CCCCC2)c1 (centres undefined)
[1]
  GI50: 17.4 µM (inactive)
[2]
  GI50: 27.4 µM (inactive)
[3]
  GI50: 30.1 µM (inactive)
[4]
  GI50: 17.5 µM (inactive)
[5]
  GI50: 24.2 µM (inactive)
[6]
  GI50: 4.88 µM (inactive)
[7]
  GI50: 17.6 µM (inactive)
[8]
  GI50: 12 µM (inactive)
[9]
  GI50: 19.1 µM (inactive)
[10]
  GI50: 18.4 µM (inactive)
[11]
  GI50: 44 µM (inactive)
[12]
  GI50: 17.2 µM (inactive)
[13]
  GI50: 13.5 µM (inactive)
[14]
  GI50: 16.9 µM
[15]
  GI50: 17.5 µM (inactive)
[16]
  GI50: 30.8 µM (inactive)
[17]
  GI50: 31.1 µM (inactive)
[18]
  GI50: 45.9 µM (inactive)
[19]
  GI50: 11.5 µM (inactive)
[20]
  GI50: 20 µM (inactive)
[21]
  GI50: 14.4 µM (inactive)
[22]
  GI50: 22.3 µM (inactive)
[23]
  GI50: 8.81 µM (inactive)
[24]
  GI50: 20.7 µM (inactive)
[25]
  GI50: 18.5 µM (inactive)
[26]
  GI50: 19.6 µM (inactive)
[27]
  GI50: 18.3 µM (inactive)
[28]
  GI50: 22.8 µM (inactive)
[29]
  GI50: 24.7 µM (inactive)
[30]
  GI50: 17.5 µM (inactive)
[31]
  GI50: 17.4 µM (inactive)
[32]
  GI50: 18.5 µM (inactive)
[33]
  GI50: 17.8 µM (inactive)
[34]
  GI50: > 100 µM (inactive)
[35]
  GI50: 17.6 µM (inactive)
[36]
  GI50: 2.94 µM (inactive)
[37]
  GI50: 23.3 µM (inactive)
[38]
  GI50: > 100 µM (inactive)
[39]
  GI50: 22.5 µM (inactive)
[40]
  GI50: 36.9 µM (inactive)
[41]
  GI50: 25.5 µM (inactive)
[42]
  GI50: 17.7 µM (inactive)
[43]
  GI50: 35.2 µM (inactive)
[44]
  GI50: 18.3 µM (inactive)
[45]
  GI50: 29.1 µM (inactive)
[46]
  GI50: 38.5 µM (inactive)
[47]
  GI50: 27.4 µM (inactive)
[48]
  GI50: 2.4 µM (inactive)
[49]
  GI50: 10 µM (inactive)
[50]
  GI50: 30.3 µM (inactive)
[51]
  GI50: 3.98 µM (inactive)
[52]
  GI50: 21.6 µM (inactive)
[53]
  GI50: 20.4 µM (inactive)
[54]
  GI50: 22.6 µM (inactive)

## COC1=CC(C2c3cc4c(cc3[C@@H](Nc3ccc(F)cc3)C3COC(=O)[C@H]23)OCO4)=CC(=O)C1=O (some centres undefined)
[1]
  GI50: 3.29 µM (inactive)
[2]
  GI50: 2.43 µM (inactive)
[3]
  GI50: 1.36 µM (inactive)
[4]
  GI50: 3.1 µM (inactive)
[5]
  GI50: 4.48 µM (inactive)
[6]
  GI50: 2.49 µM (inactive)
[7]
  GI50: 15.7 µM (inactive)
[8]
  GI50: 26.2 µM (inactive)
[10]
  GI50: 2.93 µM (inactive)
[11]
  GI50: 20.5 µM (inactive)
[12]
  GI50: 16.1 µM (inactive)
[13]
  GI50: 9.89 µM (inactive)
[14]
  GI50: 11.1 µM
[15]
  GI50: 2.11 µM (inactive)
[17]
  GI50: 1.61 µM (inactive)
[18]
  GI50: 6.92 µM (inactive)
[19]
  GI50: 20.2 µM (inactive)
[20]
  GI50: 14.4 µM (inactive)
[21]
  GI50: 10.4 µM (inactive)
[22]
  GI50: 25.7 µM (inactive)
[23]
  GI50: 13.3 µM (inactive)
[55]
  GI50: 7.78 µM (inactive)
[24]
  GI50: 11.6 µM (inactive)
[25]
  GI50: 7.82 µM (inactive)
[26]
  GI50: 15.4 µM (inactive)
[27]
  GI50: 0.524 µM (active)
[28]
  GI50: 13.7 µM (inactive)
[56]
  GI50: 11.1 µM (inactive)
[29]
  GI50: 2.88 µM (inactive)
[30]
  GI50: 0.608 µM (active)
[31]
  GI50: 4.33 µM (inactive)
[32]
  GI50: 27.7 µM (inactive)
[33]
  GI50: 39.8 µM (inactive)
[34]
  GI50: 19.9 µM (inactive)
[35]
  GI50: 10.1 µM (inactive)
[36]
  GI50: 10.5 µM (inactive)
[57]
  GI50: 50.2 µM (inactive)
[37]
  GI50: 8.05 µM (inactive)
[38]
  GI50: 3.21 µM (inactive)
[39]
  GI50: 4.37 µM (inactive)
[40]
  GI50: 19.2 µM (inactive)
[42]
  GI50: 9.35 µM (inactive)
[43]
  GI50: 4.46 µM (inactive)
[44]
  GI50: 4.32 µM (inactive)
[45]
  GI50: 5.57 µM (inactive)
[46]
  GI50: 6.81 µM (inactive)
[47]
  GI50: > 51.9 µM (inactive)
[48]
  GI50: 0.506 µM (active)
[49]
  GI50: 12.7 µM (inactive)
[50]
  GI50: 19.2 µM (inactive)
[51]
  GI50: 2.78 µM (inactive)
[52]
  GI50: 37.6 µM (inactive)
[53]
  GI50: 5.68 µM (inactive)
[54]
  GI50: 7.66 µM (inactive)
[58]
  GI50: 5.98 µM (inactive)

From ChEMBL document CHEMBL1201862, “PubChem BioAssay data set” (2004)
